Experimental data published in US9006396B2, “CsPCNA isoform antibodies and uses thereof” (priority 2005, dated 2015).
Where no end group is shown, it is not given here.

Experiments:
[1] = molecular target: C20 antibody capture of recombinant PCNA (Homo sapiens, UniProt P12004); assay: Sandwich ELISA with C20 capture antibody and competing peptide; assay type: binding; conditions: C20 capture 1 μg/well, Ab126 detection; peptide 0.024-2400 ng/well; FIG. 15B
Procedure: (§1) A sandwich ELISA was performed in which either the csPCNA specific Ab126 antibody (1 μg/well) or the non-specific PCNA antibody C20 (1 μg/well) was immobilized to the ELISA plate, and used to capture the recombinant PCNA used in the assay. Residual binding sites on the ELISA plate were blocked with BSA, and recombinant PCNA was incubated with the immobilized capture antibody in the presence of a range of concentrations of competing peptide (UMPB6—(0.024 ng/well-2400 ng/well)). After washing off unbound PCNA, the bound protein was detected with the C20 antibody in the first case, and with Ab126 in the second case. These detection antibodies were added to each well of the ELISA plate. The appropriate alkaline phosphatase conjugated secondary anti-rabbit or anti-goat IgG antibody was incubated with the bound antibody in each of the ELISA plate wells, and after washing away non-specifically bound antibody with PBS-0.05% Tween 20, the amount of detection antibody bound to the captured PCNA was determined by incubating the secondary antibody remaining in each well with 1 mg/ml of p-nitrophenolphosphate for 30 minutes.

[2] = molecular target: Ab126 capture of the csPCNA isoform present in recombinant PCNA (Homo sapiens, UniProt P12004); assay: Sandwich ELISA with Ab126 capture antibody and competing peptide; assay type: binding; conditions: Ab126 capture 1 μg/well, C20 detection; peptide 0.024-2400 ng/well; FIG. 15B
Chain of Ab126 capture of the csPCNA isoform present in recombinant PCNA (P12004 whole entry, canonical isoform): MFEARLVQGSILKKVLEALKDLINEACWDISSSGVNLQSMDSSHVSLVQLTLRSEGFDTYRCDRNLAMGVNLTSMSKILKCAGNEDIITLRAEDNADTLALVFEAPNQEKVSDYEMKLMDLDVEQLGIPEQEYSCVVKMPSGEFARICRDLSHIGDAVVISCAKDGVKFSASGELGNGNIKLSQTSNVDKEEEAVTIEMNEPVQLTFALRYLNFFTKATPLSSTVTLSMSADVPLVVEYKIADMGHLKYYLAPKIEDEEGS
Procedure: as §1

Chain of C20 antibody capture of recombinant PCNA (P12004 whole entry): as the sequence (P12004 whole entry, canonical isoform) above

LGIPEQEY [UMPB6]
effect on ability of C20 antibody to capture recombinant PCNA [1]: no detectable effect | apparent IC50 for competing for the capture antibody [2]: over 1 μg/well
